Laboratory results published in publication PMC8979514 (Journal of Enzyme Inhibition and Medicinal Chemistry, 2022).

Tests used:
[1] = in vitro; format: cell-based, human; details: human, Cells viability of SH-SY5Y cell line (% of control)
Experimental: (§1) Human neuroblastoma SH-SY5Y and human liver hepatocellular HepG2 cell lines were purchased from the American Type Culture Collections (ATCC). SH-SY5Y cells were cultured in a Dulbecco’s Modified Eagle Medium (DMEM) supplemented with Ham F12 medium (ratio 1:1), whereas HepG2 cells in Eagle’s Minimum Essential Medium (EMEM). Additionally, all culture medium was supplemented with 10% foetal bovine serum (FBS), streptomycin (100 µg/mL) and penicillin (100 U/mL). The cells were seeded into flasks containing supplemented medium and maintained in a humidified atmosphere of 5% CO2 and 95% air at 37 °C. The cell viability assay was performed in confluence of the cells in serum free medium (without FBS) was 80–90%.
(§2) […]. SH-SY5Y cells and HepG2 cells were seeded on 96-well plate with a density of 27–29 × 10^3 cells/well and 12–14 × 10^3/well respectively. […]. The DMSO concentration of every well in final dilutions was equal to or less than 0.1%. After incubation with compounds, MTT was added and 2 h later, the absorbance was measured at 492 nm. The result was expressed as the percentage of control cells (cultured in serum-free medium containing 0.1% of DMSO) which was set to 100%. The MTT test was performed in three independent replications. Data analysis was performed by using GraphPad Prism 5.0 Software.
SH-SY5Y a standard cell line used for determining neurocytotoxic effect of potential drug. Moreover it is well-established in vitro model of neurodegenerative disorders. […].

[2] = in vitro; format: cell-based, human; details: human
Experimental: as §1, §2
. HepG2 is a commonly used in vitro model for the investigation of hepatocytotoxic effect of xenobiotics [40]^,[41]. In our study, we evaluated the toxicity of our new analogs against […]. […]

[3] = cited from earlier work

Nc1c2c(nc3ccccc13)CCCC2 [Tacrine, 9-amino-1,2,3,4-tetrahydroacridine, reference compound]
viability at 12.5 µM [1]: 98.7 ± 4.5%
viability at 50 µM [1]: 97.2 ± 2.1%
viability at 100 µM [1]: 68.9 ± 2.9%
IC50 [2]: 190 µM
bioavailability of the oral formulation [3]: 9.9–36.4%
